Assay results published in patent US10065957B2, “Beta-lactamase inhibitors” (Novartis AG, priority 2016, dated 2018).

Key:
Type in all cases: cell-based
E. coli (OXA-18) = test: microbe, parasite or virus in culture; details: for MIC of aztreonam with beta-lactamase inhibitor: AZ + BLI at 2 μg/mL; for Activity of Beta-Lactam 5 with beta-lactamase inhibitor: Beta-Lactam 5 + BLI at 2 μg/mL; for MIC of ceftazidime with beta-lactamase inhibitor: Ceft + BLI at 2 μg/mL; for MIC of meropenem with beta-lactamase inhibitor: Mero + BLI at 2 μg/mL; for MIC of piperacillin with beta-lactamase inhibitor: Pip + BLI at 2 μg/mL
Method: (§1) MICs were determined by the broth microdilution method in accordance with Clinical and Laboratories Institute (CLSI) guidelines. In brief, fresh overnight bacterial cultures were suspended in sterile saline, and adjusted to a 0.5 McFarland turbidity standard. Bacterial suspensions were then diluted in cation adjusted Mueller-Hinton Broth (MHB II; BBL) to yield a final inoculum of approximately 5×10^5 colony-forming units (CFU)/mL. A master plate of antibiotics was prepared at a concentration equivalent to hundred-fold the highest desired final concentration in 100% dimethyl sulfoxide (DMSO). The master antibiotic plate was then diluted by serial twofold dilution with a multichannel pipette. The resulting dilution series of compounds were diluted 1:10 with sterile water or a solution of beta-lactamase inhibitor prepared at a concentration equivalent to eleven-fold the desired final concentration in deionized water leading to a 10% DMSO final concentration. A volume of 10 μL of the drug dilution series was transferred to 96-well assay plates. Assay plates were inoculated with 90 μL of bacterial suspensions and incubated at 35° C. for 20 hrs. The assay plates were read using a microtiter plate reader (Molecular Devices) at 600 nm as well as by visual observation with a reading mirror. The lowest concentration of the compound that prevented visible growth was recorded as the MIC.
(§2) Synergy or potentiation of beta-lactam antibiotics through inhibition of Q-lactamases was assessed against an isogenic panel of E. coli strains, each expressing a unique beta-lactamase, and against clinical strains.
Construction of E. coli isogenic strains, NB27273-CDY0105 (OXA-18) and NB27273-CDY0048 (TEM-10). […] The gene encoding OXA-18 was then digested with XhoI and EcoRI and inserted into this vector, from which the gene for GIM-1 had been removed with XhoI and EcoRI.
These final vectors for expression of OXA-18 and TEM-10 were transformed into BW25113 pspB to generate strains NB27273-CDY0105 (expressing OXA-18) and NB27273-CDY0048 (expressing TEM-10).

[1] = test system: K. pneumoniae NB29323 (CTX-M-15, OXA-48, VEB-1); details: AZ + BLI at 2 μg/mL
Method: as §1, with “MIC. Performance of the assay was monitored by testing aztreonam against laboratory quality control strains in accordance with guidelines of the CLSI.” for “MIC.”
as §2

[2] = test system: E. coli ATCC 25922, K. pneumoniae ATCC 43816, P. aeruginosa ATCC 27853; test: Direct antibacterial activity of BLIs alone, summary of Table A; details: BLI alone, in words
Method: as §1, with “A volume of 10 μL of the drug dilution series was transferred to 96-well assay plates. Assay plates were inoculated with 90 μL of bacterial suspensions and incubated at 35° C. for 20 hrs.” left out, “MIC. Performance of the assay was monitored by testing aztreonam against laboratory quality control strains in accordance with guidelines of the CLSI.” for “MIC.”

E. coli (SHV-12) = test: microbe, parasite or virus in culture; details: for MIC of aztreonam with beta-lactamase inhibitor: AZ + BLI at 2 μg/mL; for Activity of Beta-Lactam 5 with beta-lactamase inhibitor: Beta-Lactam 5 + BLI at 2 μg/mL; for MIC of ceftazidime with beta-lactamase inhibitor: Ceft + BLI at 2 μg/mL; for MIC of meropenem with beta-lactamase inhibitor: Mero + BLI at 2 μg/mL
Method: as §1, §2
(§3) Strain NB27273 (BW25113 pspB::Km^r) was obtained from the Keio transposon insertion collection. The strain has the pspB gene replaced by a kanamycin resistance marker (BW25113 pspB::Km^r). This strain was cured of the transposon in pspB via FLP recombinase using published methodology. The resulting strain, BW25113 pspB, was used as a host for multicopy vectors expressing key beta-lactamases. Multicopy plasmids directing constitutive expression of beta-lactamases were established as follows: Synthetic, codon optimized genes encoding E. coli KPC-2, SHV-12 and CTX-M-15 beta-lactamases were made by DNA2.0 (Palo Alto, Calif.). Each of the synthetic fragments were designed to contain NotI and NcoI restriction sites at their termini, allowing ligation into a NotI/NcoI digested pET28a(+) derivative for protein expression. […] The codon optimized nucleotide sequences and relevant primer recognition information is shown below:
(§4) The PCR products were then digested with XhoI and EcoRI and ligated into similarly digested plasmid pAH63-pstS(BlaP). […] Therefore, expression of beta-lactamases from pAH63-pstS(BlaP) based constructs is constitutive and the signal sequence is provided to direct these proteins to the periplasm. […] These fragments were then digested with XbaI and EcoRI, and each was inserted into pBAD18-kan that had been digested with the same enzymes to generate multicopy vectors expressing KPC-2, SHV-12 and CTX-M-15, respectively. These vectors were transformed into BW25113 pspB to generate strains NB27273-CDY0033 (expressing KPC-2), NB27273-CDY0030 (expressing SHV-12), NB27273-CDY0034 (expressing CTX-M-15) and NB27273-CDY0036 (expressing AmpC). The pBAD18-kan vector also contains the TEM promoter region and signal sequence, (but lacks any intact beta-lactamase genes) and was transformed into BW25113 pspB using standard protocols to generate the control strain NB27273-CDY0026.

E. coli (KPC-2) = test: microbe, parasite or virus in culture; details: E. coli (KPC-2); for MIC of aztreonam with beta-lactamase inhibitor: AZ + BLI at 2 μg/mL; for Activity of Beta-Lactam 5 with beta-lactamase inhibitor: Beta-Lactam 5 + BLI at 2 μg/mL; for MIC of ceftazidime with beta-lactamase inhibitor: Ceft + BLI at 2 μg/mL; for MIC of meropenem with beta-lactamase inhibitor: Mero + BLI at 2 μg/mL
Method: as §1, §2, §3, §4

E. coli (CTX-M-15) = test: microbe, parasite or virus in culture; details: for MIC of aztreonam with beta-lactamase inhibitor: AZ + BLI at 2 μg/mL; for Activity of Beta-Lactam 5 with beta-lactamase inhibitor: Beta-Lactam 5 + BLI at 2 μg/mL; for MIC of ceftazidime with beta-lactamase inhibitor: Ceft + BLI at 2 μg/mL; for MIC of meropenem with beta-lactamase inhibitor: Mero + BLI at 2 μg/mL
Method: as §1, §2, §3, §4

[3] = test system: Enterobacter cloacae NB25044 (CTX-M-12, ACT, KPC-2); details: AZ + BLI at 2 μg/mL
Method: as §1, §2

[4] = test system: K. pneumoniae NB29082 (KPC-2); test: Potentiation of piperacillin in beta-lactam resistant clinical isolate; details: Pip + BLI at 2 μg/mL
Method: as §1, with “MIC. Performance of the assay was monitored by testing aztreonam against laboratory quality control strains in accordance with guidelines of the CLSI.” for “MIC.”
as §2

[5] = test system: Enterobacter cloacae NB25055 (CMY-2); test: as above; details: Pip + BLI at 2 μg/mL
Method: as §1, with “MIC. Performance of the assay was monitored by testing aztreonam against laboratory quality control strains in accordance with guidelines of the CLSI.” for “MIC.”
as §2

S. aureus NB01437 (BLA+) = test: as above; details: Pip + BLI at 2 μg/mL
Method: as §1, with “MIC. Performance of the assay was monitored by testing aztreonam against laboratory quality control strains in accordance with guidelines of the CLSI.” for “MIC.”
as §2

| Structure (SMILES) | MIC of aztreonam with beta-lactamase inhibitor (E. coli (OXA-18)) | Activity of Beta-Lactam 5 with beta-lactamase inhibitor (E. coli (OXA-18)) | MIC of ceftazidime with beta-lactamase inhibitor (E. coli (OXA-18)) | MIC of meropenem with beta-lactamase inhibitor (E. coli (OXA-18)) | MIC of piperacillin with beta-lactamase inhibitor (E. coli (OXA-18)) | Activity of aztreonam with beta-lactamase inhibitor [1] | direct antibacterial activity [2] | MIC of aztreonam with beta-lactamase inhibitor (E. coli (SHV-12)) | Activity of Beta-Lactam 5 with beta-lactamase inhibitor (E. coli (SHV-12)) | MIC of ceftazidime with beta-lactamase inhibitor (E. coli (SHV-12)) | MIC of meropenem with beta-lactamase inhibitor (E. coli (SHV-12)) | MIC of aztreonam with beta-lactamase inhibitor (E. coli (KPC-2)) | Activity of Beta-Lactam 5 with beta-lactamase inhibitor (E. coli (KPC-2)) | MIC of ceftazidime with beta-lactamase inhibitor (E. coli (KPC-2)) | MIC of meropenem with beta-lactamase inhibitor (E. coli (KPC-2)) | MIC of aztreonam with beta-lactamase inhibitor (E. coli (CTX-M-15)) | Activity of Beta-Lactam 5 with beta-lactamase inhibitor (E. coli (CTX-M-15)) | MIC of ceftazidime with beta-lactamase inhibitor (E. coli (CTX-M-15)) | MIC of meropenem with beta-lactamase inhibitor (E. coli (CTX-M-15)) | Activity of aztreonam with beta-lactamase inhibitor [3] | other results |
| --- | --- | --- | --- | --- | --- | --- | --- | --- | --- | --- | --- | --- | --- | --- | --- | --- | --- | --- | --- | --- | --- |
| NC(=O)[C@@H]1CC[C@@H]2CN1C(=O)N2OS(=O)(=O)O [Avibactam] | 1 µg/mL | 0.125 µg/mL | 0.5 µg/mL | ≤0.06 µg/mL | 2 µg/mL | 2 µg/mL | exhibit direct antibacterial activity | 1 µg/mL | 0.125 µg/mL | 0.5 µg/mL | ≤0.06 µg/mL | 0.125 µg/mL | 0.125 µg/mL | 0.25 µg/mL | ≤0.06 µg/mL | 0.125 µg/mL | 0.25 µg/mL | 0.25 µg/mL | ≤0.06 µg/mL | 8 µg/mL | – |
| O=C1NC[C@@H]2C[C@@H]3CN(C(=O)N3OS(=O)(=O)[O-])[C@H]12.[Na+] [Example 1, Sodium (4R,5aS,8aS)-2,8-dioxohexahydro-2H-1,4-methanopyrrolo[3,4-d][1,3]diazepin-3(4H)-yl sulfate] | 1 µg/mL | 0.25 µg/mL | 0.5 µg/mL | ≤0.06 µg/mL | 2 µg/mL | 0.25 µg/mL | does not exhibit much direct antibiotic activity | 0.25 µg/mL | 0.25 µg/mL | 0.25 µg/mL | ≤0.06 µg/mL | 0.125 µg/mL | 0.25 µg/mL | 0.125 µg/mL | ≤0.06 µg/mL | ≤0.06 µg/mL | 0.25 µg/mL | 0.25 µg/mL | ≤0.06 µg/mL | 4 µg/mL | Activity of piperacillin with beta-lactamase inhibitor [4]: 8 µg/mL; Activity of piperacillin with beta-lactamase inhibitor [5]: 4 µg/mL; Activity of piperacillin with beta-lactamase inhibitor (S. aureus NB01437 (BLA+)): 1 µg/mL |
| O=C(NC1CCNCC1)[C@@H]1CC[C@@H]2CN1C(=O)N2OS(=O)(=O)O [Relebactam] | >64 µg/mL | 0.25 µg/mL | >64 µg/mL | ≤0.06 µg/mL | >32 µg/mL | 8 µg/mL | – | 32 µg/mL | 0.125 µg/mL | 8 µg/mL | ≤0.06 µg/mL | 1 µg/mL | 0.125 µg/mL | 0.25 µg/mL | ≤0.06 µg/mL | 0.5 µg/mL | 0.25 µg/mL | 0.5 µg/mL | ≤0.06 µg/mL | >64 µg/mL | – |
